In article PMC11676910, “Manganese(II) Complexes with Non-Steroidal Anti-Inflammatory Drugs: Structure and Biological Activity” (International Journal of Molecular Sciences, 2024):
Like-named read-outs stand apart in the source and are kept apart here.

Tests used:
[1] = ABTS radical scavenging assay; settings: compound 0.1 mM in DMSO; absorbance at 734 nm 1 min after mixing
CT DNA [2] = experiment: CT DNA binding by UV-vis spectroscopy titration; design: species or system calf; settings: for ΔA/A0 (%) hyper-/hypo-chromism of UV band / Δλ (nm) shift of λmax: on addition of CT DNA
EB–DNA adduct (CT DNA) [3] = experiment: EB displacement from EB–DNA adduct by fluorescence emission spectroscopy; format: binding, calf; settings: for Stern–Volmer constant KSV (EB–DNA) / EB–DNA fluorescence quenching ΔI/Io (%): [EB] = 40 μM, [DNA] = 45 μM; for EB–DNA fluorescence quenching ΔI/Io (%): λexcitation 540 nm; for relative EB–DNA fluorescence intensity (I/Io, %) remaining: λemission = 592 nm, lowest value reached, % of the initial EB–DNA fluorescence; for quenching constant kq of the EB–DNA fluorescence: τo = 23 ns
[4] = Solubility of the complexes; format: physicochemical
[5] = target: human serum albumin (HSA) (Homo sapiens, UniProt P02768); settings: for HSA binding constant Κ(HSA): Scatchard equation, HSA 3 μM; for relative HSA fluorescence emission intensity (I/Io %) remaining: λem,max = 340 nm, lowest value reached, % of the initial HSA fluorescence
human serum albumin (HSA), sequence (P02768 25-609): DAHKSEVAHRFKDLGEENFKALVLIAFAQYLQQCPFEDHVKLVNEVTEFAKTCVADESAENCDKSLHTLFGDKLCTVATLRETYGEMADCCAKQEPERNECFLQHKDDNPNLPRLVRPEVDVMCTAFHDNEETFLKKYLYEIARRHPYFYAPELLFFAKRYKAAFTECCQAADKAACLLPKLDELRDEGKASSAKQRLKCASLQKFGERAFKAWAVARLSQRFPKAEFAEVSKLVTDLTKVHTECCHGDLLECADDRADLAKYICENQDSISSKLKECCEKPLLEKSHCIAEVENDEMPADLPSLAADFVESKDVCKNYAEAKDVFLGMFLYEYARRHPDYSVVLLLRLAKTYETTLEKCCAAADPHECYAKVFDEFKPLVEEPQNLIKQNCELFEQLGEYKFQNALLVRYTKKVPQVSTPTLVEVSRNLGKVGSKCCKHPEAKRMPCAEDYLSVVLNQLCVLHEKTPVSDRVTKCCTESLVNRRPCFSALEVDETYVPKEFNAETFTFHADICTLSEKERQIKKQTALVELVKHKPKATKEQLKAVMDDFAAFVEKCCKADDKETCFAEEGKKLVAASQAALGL

[6] = target: bovine serum albumin (BSA) (Bos taurus, UniProt P02769); experiment: BSA tryptophan fluorescence quenching; settings: for BSA binding constant Κ(BSA): Scatchard equation, BSA 3 μM; for relative BSA fluorescence emission intensity (I/Io, %) remaining: λem,max = 345 nm, lowest value reached, % of the initial BSA fluorescence
bovine serum albumin (BSA), sequence (P02769 25-607): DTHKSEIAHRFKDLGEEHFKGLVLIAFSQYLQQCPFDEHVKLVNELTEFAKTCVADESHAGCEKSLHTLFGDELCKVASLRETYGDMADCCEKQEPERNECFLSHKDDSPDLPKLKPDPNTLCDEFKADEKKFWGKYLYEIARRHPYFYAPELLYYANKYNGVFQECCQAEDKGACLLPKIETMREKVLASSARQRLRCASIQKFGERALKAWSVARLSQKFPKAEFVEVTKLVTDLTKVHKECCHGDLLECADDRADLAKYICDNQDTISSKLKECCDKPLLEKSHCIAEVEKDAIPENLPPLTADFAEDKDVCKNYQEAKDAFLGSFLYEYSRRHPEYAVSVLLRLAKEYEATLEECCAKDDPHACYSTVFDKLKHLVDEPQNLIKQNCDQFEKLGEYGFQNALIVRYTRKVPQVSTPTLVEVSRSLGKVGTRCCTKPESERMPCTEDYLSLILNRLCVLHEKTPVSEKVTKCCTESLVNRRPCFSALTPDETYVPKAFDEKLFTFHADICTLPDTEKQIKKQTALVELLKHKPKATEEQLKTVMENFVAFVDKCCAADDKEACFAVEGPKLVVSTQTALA

[7] = design: concentration or dose not given beside the values; settings: free NSAID; cited from earlier work
CT DNA [8] = settings: cited from earlier work; for ΔA/A0 (%) hyper-/hypo-chromism of UV band: first band listed in the cell
EB–DNA adduct (CT DNA) [9] = settings: cited from earlier work
[10] = first band listed in the cell, + hyperchromism, − hypochromism
[11] = first band listed in the cell, + red shift, − blue shift
[12] = second band listed in the cell, <−50 = intense hypochromism
[13] = second band listed in the cell, elim = elimination

Compound | % ABTS radical scavenging activity (ABTS%) [1] [%] | ΔA/A0 (%) hyper-/hypo-chromism of UV band (CT DNA [2]; [10]) | Δλ (nm) shift of λmax (CT DNA [2]; [11]) | Stern–Volmer constant KSV (EB–DNA) (EB–DNA adduct (CT DNA) [3]) | EB–DNA fluorescence quenching ΔI/Io (%) (EB–DNA adduct (CT DNA) [3]) | relative EB–DNA fluorescence intensity (I/Io, %) remaining (EB–DNA adduct (CT DNA) [3]) [%] | quenching constant kq of the EB–DNA fluorescence (EB–DNA adduct (CT DNA) [3]) | solubility [4] | HSA binding constant Κ(HSA) [5] | relative HSA fluorescence emission intensity (I/Io %) remaining [5] [%] | BSA binding constant Κ(BSA) [6] | relative BSA fluorescence emission intensity (I/Io, %) remaining [6] [%] | ΔA/A0 (%) hyper-/hypo-chromism of UV band (CT DNA [2]; [12]) | BSA quenching constant kq(BSA) [6] | Δλ (nm) shift of λmax (CT DNA [2]; [13]) | further results
Cc1ccc(Cl)c(Nc2ccccc2C(=O)[O-])c1Cl.Cc1ccc(Cl)c(Nc2ccccc2C(=O)[O-])c1Cl.O.O.[Mn+2].c1ccncc1.c1ccncc1.c1ccncc1.c1ccncc1 [Complex 1, [Μn(meclf–O)2(py)2(H2O)2]∙2py] | 39.18 ± 3.27 | +10% | −2 nm | 1.15 (±0.17) × 10^5 M^–1 | 53.0 | 47.0 | 4.99 (±0.15) × 10^12 M^–1s^–1 | soluble in DMSO and DMF | 8.83 (±0.24) × 10^5 M^–1 | 21.8 | 9.58 (±0.07) × 10^5 M^–1 | 11.8 | – | – | – | –
CO.CO.Cc1ccc(Cl)c(Nc2ccccc2C(=O)[O-])c1Cl.Cc1ccc(Cl)c(Nc2ccccc2C(=O)[O-])c1Cl.[Mn+2].c1cnc2c(c1)ccc1cccnc12 [Complex 3, [Μn(meclf–O)2(phen)(MeOH)2]] | 18.66 ± 0.71 | −6% | +2 nm | 1.18 (±0.32) × 10^6 M^–1 | 79.6 | 20.4 | 5.15 (±0.14) × 10^13 M^–1s^–1 | soluble in DMSO, and DMF | 8.73 (±0.06) × 10^5 M^–1 | 17.0 | 2.71 (±0.16) × 10^6 M^–1 | 8.0 | – | – | – | –
O=C(O)Cc1ccccc1Nc1c(Cl)cccc1Cl [Na dicl, sodium diclofenac] | – | – | – | – | – | – | – | – | – | – | – | – | – | – | – | % ABTS radical scavenging activity (ABTS%) [7]: 76.35 ± 0.75%; ΔA/A0 (%) hyper-/hypo-chromism of UV band (CT DNA [8]): −7.5%; EB–DNA fluorescence quenching ΔI/Io (%) (EB–DNA adduct (CT DNA) [9]): 65.0%; Stern–Volmer constant KSV (EB–DNA) (EB–DNA adduct (CT DNA) [9]): 2.47 (±0.06) × 10^5 M^–1; quenching constant kq of the EB–DNA fluorescence (EB–DNA adduct (CT DNA) [9]): 1.07 (±0.03) × 10^13 M^–1s^–1
O=C(O)c1cc(-c2ccc(F)cc2F)ccc1O [Complex H2difl, diflunisal] | – | – | – | – | – | – | – | – | – | – | – | – | – | – | – | % ABTS radical scavenging activity (ABTS%) [7]: 76.58 ± 0.74%; ΔA/A0 (%) hyper-/hypo-chromism of UV band (CT DNA [8]): +15%; EB–DNA fluorescence quenching ΔI/Io (%) (EB–DNA adduct (CT DNA) [9]): 65.0%; Stern–Volmer constant KSV (EB–DNA) (EB–DNA adduct (CT DNA) [9]): 8.59 (±0.35) × 10^5 M^–1; quenching constant kq of the EB–DNA fluorescence (EB–DNA adduct (CT DNA) [9]): 3.73 (±0.15) × 10^13 M^–1s^–1
CO.CO.Cc1ccc(Cl)c(Nc2ccccc2C(=O)[O-])c1Cl.Cc1ccc(Cl)c(Nc2ccccc2C(=O)[O-])c1Cl.[Mn+2].c1ccc(-c2ccccn2)nc1 [Complex 4, [Mn(meclf–O)2(bipy)(MeOH)2]] | 98.69 ± 0.06 | +15% | – | 1.54 (±0.31) × 10^5 M^–1 | 44.8 | – | 6.69 (±0.13) × 10^12 M^–1s^–1 | – | 9.38 (±0.29) × 10^5 M^–1 | – | 9.61 (±0.06) × 10^5 M^–1 | – | +9% | 1.76 (±0.11) × 10^14 M^–1s^–1 | – | –
[Μn(mef–O)2(py)2(H2O)(MeOH)]∙1.5py [Complex 2] | 92.56 ± 0.74 | +7% | 0 nm | 2.30 (±0.53) × 10^5 M^–1 | – | 47.4 | 1.00 (±0.155) × 10^13 M^–1s^–1 | soluble in DMSO and DMF | 1.92 (±0.10) × 10^6 M^–1 | 0.3 | 1.03 (±0.16) × 10^6 M^–1 | 9.7 | < −50% | – | elim | overall quenching of albumin fluorescence ([5]; % of the fluorescence intensity initially measured for albumin (HSA per Figure 11C)): 99.7%
Cc1ccc2ccc3ccc(C)nc3c2n1.O=C([O-])c1ccccc1Nc1cccc(C(F)(F)F)c1.O=C([O-])c1ccccc1Nc1cccc(C(F)(F)F)c1.[Mn+2] [Complex 7, [Μn(fluf–O,O’)2(neoc)]] | 29.70 ± 2.86 | −6% | 0 nm | 5.55(±0.12) × 10^5 M^–1 | 52.1 | 47.9 | 2.41 (±0.05) × 10^13 M^–1s^–1 | soluble in DMSO | 8.33 (±0.04) × 10^5 M^–1 | 14.4 | 4.69 (±0.37) × 10^5 M^–1 | 10.8 | – | 4.62 (±0.11) × 10^13 M^–1s^–1 | – | DNA binding constant Kb (CT DNA [2]; Wolfe–Shimer equation, buffer 150 mM NaCl, 15 mM trisodium citrate pH 7.0): 1.10 (±0.02) × 10^6 M^–1
Cc1c(Cl)cccc1Nc1ccccc1C(=O)[O-].Cc1c(Cl)cccc1Nc1ccccc1C(=O)[O-].Cc1ccc2ccc3ccc(C)nc3c2n1.[Mn+2] [Complex 8, [Μn(tolf–O,O’)2(neoc)]] | 99.63 ± 0.07 | +5% | +1 nm | 2.35 (±0.48) × 10^5 M^–1 | 50.0 | 50.0 | 1.02 (±0.03) × 10^13 M^–1s^–1 | soluble in DMSO | 6.35 (±0.29) × 10^5 M^–1 | 7.4 | 7.23 (±0.23) × 10^5 M^–1 | 4.4 | +2% | 1.36 (±0.53) × 10^14 M^–1s^–1 | +2 nm | –
[Μn(dicl–O,O’)2(neoc)]∙0.25 H2O [Complex 5] | 99.20 ± 0.06 | +8% | +2 nm | 7.37 (±0.05) × 10^5 M^–1 | 69.9 | 30.1 | 3.20 (±0.21) × 10^13 M^–1s^–1 | soluble in DMSO | 3.09 (±0.21) × 10^5 M^–1 | 0.8 | 6.32 (±0.32) × 10^5 M^–1 | 12.7 | +7% | 3.46 (±0.16) × 10^13 M^–1s^–1 | −4 nm | –
CC[n+]1c(-c2ccccc2)c2cc(N)ccc2c2ccc(N)cc21.[Br-] [EB, 3,8–diamino–5–ethyl–6–phenyl–phenanthridinium bromide] | – | – | – | – | – | – | – | – | – | – | – | – | – | – | – | DNA binding constant Kb (CT DNA [8]; classic intercalator): 1.23 (±0.07) × 10^5 M^−1
[Μn(Hdifl–O,O’)(Hdifl–O)(neoc)]·0.5MeOH [Complex 9] | 25.80 ± 1.43 | +6% | 0 nm | 1.01 (±0.42) × 10^6 M^–1 | – | 29.4 | 4.39 (±0.10) × 10^13 M^–1s^–1 | soluble in DMSO | 5.44 (±0.24) × 10^5 M^–1 | 24.9 | 5.67 (±0.27) × 10^5 M^–1 | 24.8 | – | 2.99 (±0.16) × 10^13 M^–1s^–1 | – | –
[Μn(mef–O,O’)2(neoc)]∙1.5MeOH∙0.25 H2O [Complex 6] | 98.69 ± 0.07 | +3% | 0 nm | 4.29 (±0.32) × 10^5 M^–1 | 60.6 | 39.4 | 1.86 (±0.18) × 10^13 M^–1s^–1 | soluble in DMSO | 9.48 (±0.35) × 10^5 M^–1 | 5.6 | 1.08 (±0.38) × 10^6 M^–1 | 5.9 | +2% | 1.87 (±0.04) × 10^14 M^–1s^–1 | −2 nm | –
Cc1c(C)c2c(c(C)c1O)CCC(C)(C(=O)O)O2 (stereo not shown) [Trolox, 6–Hydroxy–2,5,7,8–tetramethylchromane–2–carboxylic acid, reference compound] | 91.8 ± 0.17 | – | – | – | – | – | – | – | – | – | – | – | – | – | – | –
